Test results published in publication PMC8635440 (Science Advances, 2021).
Positions of bridges follow the written chain, without caps; N, C: chain ends. Non-standard residues stand in square brackets, D forms with d. Residues, ends and D or L forms follow the SMILES beside them.

Assays:
retromer holo-complex = retromer holo-complex (Homo sapiens, UniProt O75436+Q96QK1+Q9UBQ0); assay: Differential scanning fluorimetry of retromer; assay type: binding; conditions: DSF
Vps29 = Vps29 (Homo sapiens, UniProt Q9UBQ0); assay: Differential scanning fluorimetry of Vps29; assay type: binding; conditions: DSF, 20-fold molar excess
TBC1D5TBC into Retromer = TBC1D5TBC into Retromer (Homo sapiens, UniProt O75436+Q96QK1+Q9UBQ0); assay: ITC of TBC1D5TBC into retromer in presence of cyclic peptide; assay type: binding; conditions: native 370 nM
SNX27PDZ into Retromer = SNX27PDZ into Retromer (Homo sapiens, UniProt O75436+Q96QK1+Q9UBQ0); assay: ITC of SNX27PDZ into retromer in presence of cyclic peptide; assay type: binding, mouse SNX27; conditions: 1.3 mM SNX27PDZ into 30 μM retromer + 150 μM peptide; native (DMSO) 13.0 ± 0.5
[1] = test system: TBC1D5 localization in HeLa cells; assay: TBC1D5 endosomal localization after SLO delivery of peptide; assay type: cell-based, human; conditions: 2 hours recovery, colocalization with SNX1
[2] = target: GST-TBC1D5TBC binding to retromer (Homo sapiens, UniProt O75436+Q96QK1+Q9UBQ0); assay: GST pull-down assay; conditions: GST pulldown, purified proteins
Solubility observations = assay type: physicochemical; conditions: ITC buffer
[3] = target: Vps26A9-298_Vps351-390 (Δ C-term. tail complex) (Homo sapiens, UniProt O75436+Q96QK1); assay: ITC binding to Vps26A ΔC-term. tail subcomplex; conditions: 25°C, Vps26A C-terminal tail removed
Vps26BΔC-Vps35_1–390 = Vps26BΔC-Vps35_1–390 (UniProt Q8C0E2+Q96QK1); assay: ITC binding to Vps26B ΔC-term. tail subcomplex; design: species or system mouse Vps26B, human Vps35
zfRetromer = zfRetromer (Danio rerio, UniProt A4QP42+Q6TNP8); assay: ITC binding to zebrafish retromer
ctRetromer = target: T1, ctRetromer (Thermochaetoides thermophila, UniProt G0S0E6+G0S709); assay: ITC binding to C. thermophilum retromer; design: species or system Chaetomium thermophilum; conditions: 25°C
T1 sequence (G0S709 1-869): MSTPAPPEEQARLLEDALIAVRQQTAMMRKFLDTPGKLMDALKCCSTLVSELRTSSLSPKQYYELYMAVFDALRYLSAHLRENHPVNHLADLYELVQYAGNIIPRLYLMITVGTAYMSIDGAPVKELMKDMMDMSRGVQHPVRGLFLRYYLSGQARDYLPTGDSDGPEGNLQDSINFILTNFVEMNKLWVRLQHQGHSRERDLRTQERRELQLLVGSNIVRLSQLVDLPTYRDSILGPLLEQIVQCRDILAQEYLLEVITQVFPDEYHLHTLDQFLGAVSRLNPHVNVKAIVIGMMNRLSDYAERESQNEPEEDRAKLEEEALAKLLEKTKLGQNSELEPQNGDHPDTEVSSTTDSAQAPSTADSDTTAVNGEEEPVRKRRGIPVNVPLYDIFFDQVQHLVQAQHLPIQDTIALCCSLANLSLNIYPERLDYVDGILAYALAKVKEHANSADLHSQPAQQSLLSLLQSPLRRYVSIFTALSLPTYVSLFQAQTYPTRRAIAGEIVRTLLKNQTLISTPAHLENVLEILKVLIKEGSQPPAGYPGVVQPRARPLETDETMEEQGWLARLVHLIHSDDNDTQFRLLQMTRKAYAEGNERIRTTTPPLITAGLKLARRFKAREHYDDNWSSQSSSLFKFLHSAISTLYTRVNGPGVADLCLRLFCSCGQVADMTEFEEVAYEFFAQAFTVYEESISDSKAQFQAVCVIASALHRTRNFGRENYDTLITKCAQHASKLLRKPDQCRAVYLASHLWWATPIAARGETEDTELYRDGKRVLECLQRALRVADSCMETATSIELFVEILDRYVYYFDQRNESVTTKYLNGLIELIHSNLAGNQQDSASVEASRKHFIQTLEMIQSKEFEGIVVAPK
T1 sequence (G0S0E6 1-316): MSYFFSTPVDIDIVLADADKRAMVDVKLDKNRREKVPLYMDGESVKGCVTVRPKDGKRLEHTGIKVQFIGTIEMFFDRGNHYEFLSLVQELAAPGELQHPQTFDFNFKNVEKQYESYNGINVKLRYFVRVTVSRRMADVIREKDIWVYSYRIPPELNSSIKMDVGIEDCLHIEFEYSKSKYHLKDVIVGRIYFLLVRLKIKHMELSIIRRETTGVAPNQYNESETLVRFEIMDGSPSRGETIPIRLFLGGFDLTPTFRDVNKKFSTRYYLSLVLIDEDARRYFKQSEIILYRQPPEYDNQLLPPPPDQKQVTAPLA

[4] = target: Vps26A-Vps35_1–390 subcomplex (Homo sapiens, UniProt O75436+Q96QK1); assay: Differential scanning fluorimetry of Vps26A-Vps35 1-390; assay type: binding; conditions: DSF
Vps26A = Vps26A (Homo sapiens, UniProt O75436); assay: Differential scanning fluorimetry of Vps26A; assay type: binding; conditions: DSF, control experiment
[5] = target: retromer and its ligands in HeLa cell lysates (Homo sapiens, UniProt O75436+Q96QK1+Q9UBQ0); assay: Biotinylated cyclic peptide pull-down from HeLa cell lysates; assay type: binding; conditions: streptavidin agarose, Western blotting
[6] = target: Rab7a with TBC1D5TBC and retromer (Homo sapiens, UniProt O75436+Q96QK1+Q9UBQ0); assay: GTPase activity assay; assay type: biochemical; conditions: 10 μM Rab7a, 3 μM TBC1D5TBC, 6 μM retromer, 60 μM peptide
[7] = target: retromer binding to SNX3–CI-MPR cargo-PtdIns3P liposomes (Homo sapiens, UniProt O75436+Q96QK1+Q9UBQ0); assay: Liposome binding assay; conditions: Folch I liposomes, 7 μM retromer-SNX3
[8] = target: human retromer complex (Vps35-[change]-Vps29) (human) (UniProt Q96QK1); assay: ITC

Compound: N=C(N)SCc1ccc(CSC(=N)N)s1 [R55]
- impact on thermal stability (Tm) of retromer (retromer holo-complex; 3 µM Retromer, 60 μM compound or 30-fold molar excess of peptide): unable to detect significant improvement
- impact on Retromer stability (retromer holo-complex; 1 mM (>300-fold molar excess)): little impact

Compound: CC[C@H](C)[C@@H]1NC(=O)[C@H]([C@@H](C)CC)NC(=O)[C@@H](Cc2ccc(O)cc2)NC(=O)CSC[C@@H](C(N)=O)NC(=O)[C@H](CCCNC(=N)N)NC(=O)[C@H](CCCCN)NC(=O)[C@H](CC(C)C)NC(=O)[C@H](CO)NC(=O)[C@H](CO)NC(=O)[C@H](CC(C)C)NC(=O)[C@H](Cc2ccccc2)NC(=O)[C@H](C(C)C)NC(=O)CNC(=O)[C@H](CC(C)C)NC(=O)[C@@H]2CCCN2C(=O)[C@H]([C@@H](C)O)NC(=O)[C@H](CC(=O)O)NC1=O [RT-D1] ({CH2CO}-[dY]IIDTPLGVFLSSLKRC-NH2; thioether N-17)
- effect on melting temperature (Tm) of Vps29 (Vps29): increased

Compound: CC[C@H](C)[C@@H]1NC(=O)[C@H](CCCNC(=N)N)NC(=O)[C@@H]2CCCN2C(=O)[C@H](Cc2ccccc2)NC(=O)[C@H]([C@@H](C)O)NC(=O)CNC(=O)[C@H](CC(C)C)NC(=O)[C@@H]2CCCN2C(=O)[C@H]([C@@H](C)O)NC(=O)[C@H](Cc2c[nH]c3ccccc23)NC(=O)[C@H](Cc2ccc(O)cc2)NC(=O)[C@H]([C@@H](C)CC)NC(=O)[C@H]([C@@H](C)O)NC(=O)[C@H]([C@@H](C)O)NC(=O)[C@@H](Cc2ccc(O)cc2)NC(=O)CSC[C@@H](C(N)=O)NC(=O)[C@H](CCCNC(=N)N)NC1=O [RT-D2] ({CH2CO}-[dY]TTIYWTPLGTFPRIRC-NH2; thioether N-17)
- effect on melting temperature (Tm) of Vps29 (Vps29): increased

Compound: CC(C)C[C@@H]1NC(=O)CNC(=O)[C@H](CC(C)C)NC(=O)[C@@H]2CCCN2C(=O)[C@H](CC(=O)O)NC(=O)[C@H](Cc2ccc(O)cc2)NC(=O)CNC(=O)[C@@H](Cc2ccc(O)cc2)NC(=O)CSC[C@@H](C(N)=O)NC(=O)[C@H](C)NC(=O)[C@H](Cc2ccccc2)NC(=O)[C@H](Cc2ccc(O)cc2)NC(=O)[C@H](CCCCN)NC1=O [RT-D3] ({CH2CO}-[dY]GYDPLGLKYFAC-NH2; thioether N-13)
- effect on melting temperature (Tm) of Vps29 (Vps29): increased
- Kd (TBC1D5TBC into Retromer): undetectable
- Kd (SNX27PDZ into Retromer): no impact
- effect on TBC1D5 localization to endosomal structures [1]: significant dispersal
- effect on GST-TBC1D5TBC interaction with retromer [2]: inhibited

Compound: CC(C)C[C@@H]1NC(=O)[C@@H]2CCCN2C(=O)[C@H](CC(=O)O)NC(=O)[C@H](Cc2c[nH]c3ccccc23)NC(=O)CNC(=O)[C@@H](Cc2ccc(O)cc2)NC(=O)CSC[C@@H](C(N)=O)NC(=O)[C@H](C(C)C)NC(=O)[C@H](Cc2ccccc2)NC(=O)[C@H](Cc2ccc(O)cc2)NC(=O)[C@H](CC(N)=O)NC(=O)[C@H](C(C)C)NC(=O)[C@H](Cc2ccc(O)cc2)NC1=O [RT-D4] ({CH2CO}-[dY]GWDPLYVNYFVC-NH2; thioether N-13)
- solubility for ITC experiments (Solubility observations): not sufficiently soluble for ITC experiments

Compound: CC[C@H](C)[C@@H]1NC(=O)[C@H](Cc2ccc(O)cc2)NC(=O)CSC[C@@H](C(N)=O)NC(=O)CNC(=O)[C@H](Cc2c[nH]cn2)NC(=O)[C@H](CCCNC(=N)N)NC(=O)[C@H](CC(N)=O)NC(=O)[C@@H]2CCCN2C(=O)[C@H](Cc2ccccc2)NC(=O)[C@H]([C@@H](C)O)NC(=O)CNC(=O)[C@H](CC(C)C)NC(=O)[C@@H]2CCCN2C(=O)[C@H]([C@@H](C)O)NC(=O)[C@H](CCCCN)NC1=O [RT-L1] ({CH2CO}-YIKTPLGTFPNRHGC-NH2; thioether N-15)
- effect on melting temperature (Tm) of Vps29 (Vps29): increased

Compound: CC[C@H](C)[C@@H]1NC(=O)[C@H]([C@@H](C)O)NC(=O)[C@@H]2CCCN2C(=O)[C@H](CC(C)C)NC(=O)[C@H](Cc2ccc(O)cc2)NC(=O)CSC[C@@H](C(N)=O)NC(=O)[C@H](CC(C)C)NC(=O)[C@@H]2CCCN2C(=O)[C@H](Cc2c[nH]cn2)NC(=O)[C@H](Cc2c[nH]c3ccccc23)NC(=O)[C@H](CC(C)C)NC(=O)[C@H](Cc2c[nH]cn2)NC(=O)CNC(=O)[C@H](C(C)C)NC(=O)CNC(=O)[C@H]([C@@H](C)O)NC1=O [RT-L2] ({CH2CO}-YLPTITGVGHLWHPLC-NH2; thioether N-16)
- effect on melting temperature (Tm) of Vps29 (Vps29): increased

Compound: CC(C)C[C@@H]1NC(=O)[C@H](Cc2ccc(O)cc2)NC(=O)CSC[C@@H](C(N)=O)NC(=O)[C@H](CC(N)=O)NC(=O)[C@H](C(C)C)NC(=O)[C@H](Cc2ccc(O)cc2)NC(=O)[C@H](Cc2ccccc2)NC(=O)[C@H](CC(C)C)NC(=O)[C@H](CCCNC(=N)N)NC(=O)[C@H](C(C)C)NC(=O)[C@H](Cc2ccc(O)cc2)NC(=O)[C@H](CC(C)C)NC(=O)[C@@H]2CCCN2C(=O)[C@H](CC(=O)O)NC(=O)[C@H](Cc2ccccc2)NC(=O)[C@H](CCC(=O)O)NC1=O [RT-L3] ({CH2CO}-YLEFDPLYVRLFYVNC-NH2; thioether N-16)
- solubility for ITC experiments (Solubility observations): not sufficiently soluble for ITC experiments

Compound: CC[C@H](C)[C@@H]1NC(=O)[C@H](Cc2c[nH]c3ccccc23)NC(=O)[C@H](Cc2ccc(O)cc2)NC(=O)CSC[C@@H](C(N)=O)NC(=O)[C@H]([C@@H](C)O)NC(=O)[C@H](CO)NC(=O)[C@H](C(C)C)NC(=O)[C@H](Cc2ccc(O)cc2)NC(=O)[C@H](CCCNC(=N)N)NC(=O)[C@H](Cc2ccc(O)cc2)NC(=O)[C@H]([C@@H](C)O)NC(=O)[C@H]([C@@H](C)O)NC(=O)[C@H](Cc2c[nH]c3ccccc23)NC(=O)[C@H](CO)NC(=O)[C@H](CC(N)=O)NC(=O)[C@H](CO)NC1=O [RT-L4] ({CH2CO}-YWISNSWTTYRYVSTC-NH2; thioether N-16)
- Kd [3]: ~40 nM
- Kd (Vps26BΔC-Vps35_1–390): ~40 nM
- Kd (zfRetromer): 88 nM
- Kd (ctRetromer): 5000 nM
- effect on melting temperature (Tm) of Vps29 (Vps29): did not affect
- increase in Tm for the Vps26A-Vps35_1–390 subcomplex [4]: 8 °C
- effect on thermal stability of Vps26A alone (Vps26A): did not affect
- retromer ligands recovered with peptide-bound retromer [5]: able to interact with TBC1D5, VARP, Fam21, SNX27, and the SNX3–DMT1-II complex
- GAP-stimulated GTP hydrolysis of Rab7a [6]: slight improvement
- retromer binding to SNX3–CI-MPR cargo-PtdIns3P liposomes [7]: subtle reduction
- effect on TBC1D5 localization to endosomal structures [1]: no discernible effect

Compound: TBC domain of human TBC1D5 (from UniProt Q92609 1-795) (domain or fragment)
- Kd [8]: 370 nM
